The results in this text go back to patent US11613750B2, “Methods of reducing virus molecule levels” (priority 2019, dated 2023).

One data set deals with RPLP1 mRNA. In words: Target mRNA reduction by RT-qPCR in HepG2.2.15 cells. The class given is cell-based, human. The following applies: 10 nM siRNA. An excerpt:
The siRNAs identified as described in Example A6 should function by a mechanism that includes being loaded in the RISC complex to cleave the cognate mRNA, leading to the degradation of the mRNA. To examine whether the siRNAs are effective in reducing the target mRNA, we used reverse transcription coupled with quantitative polymerase chain reaction (RT-qPCR) to assess the level of the target mRNA in HepG2.2.15 cells. All 32 siRNAs described in Table 2 reduced the mRNA by more than 75% (Table 3).

The next data set deals with HBeAg. The following applies: for HBeAg reduction HepG2.2.15 cells: 10 nM siRNA transfected into cells. Here is the method: HBeAg in the cell culture media was assessed using ELISAs.
(§1) The ability of siRNAs targeting host factors that then results in the reduced production of multiple HBV molecules was evaluated by quantifying the amount of HBsAg, HBeAg, and Core protein produced by HepG2.2.15 cells after contacting with 10 nM of siRNAs that target HNRNPA2B1, GRP78, RPLP1, RPLP2, and SRSF1. We also contacted the cells with 5 nM of each set of siRNAs that targets both RPLP1 and RPLP2. The level of HBsAg, HBeAg, and Core were all determined using ELISAs.
(§2) The library of siRNAs of Example A5 were tested for the reduction of HBsAg secreted by HepG2.2.15 cells and in HBV virions.

The test system of a further data set is HBsAg. As to conditions: HepG2.2.15 cells; for EC50: read-out: EC50, Extracell. HBsAg reduction. How it is done:
(§3) Cell viability was assessed by ATP levels determined using the CellTiter-Glo reagent and the results normalized to the level in mock-treated cells. HBsAg levels were quantified using ELISA and the data normalized to the level in the mock-treated cells.
The cellular proteins GRP78/BIP, SRSF1, HNRNPA2B1, RPLP1, and RPLP2 were identified as having roles in HBV replication and infection. Various siRNAs and combinations thereof targeting the RNAs encoding these proteins were contacted with HepG2.2.15 cells at a final concentration of 7.5 nM.
The EC50 values of several siRNAs and combinations of siRNAs targeting HNRNPA2B1, GRP78, RPLP1, RPLP2, and/or SRSF1 were determined with respect to the ability to reduce HBsAg levels in HepG2.2.15 cells.
as §1, §2

A further data set has as its system RPLP1 protein. In words: Target protein reduction by Western blot in HepG2.2.15 cells. The following applies: 10 nM siRNA, 72 h. The class given is cell-based, human. Here is the method: The host factors likely function in viral infection as proteins. Therefore, we determined whether the siRNAs could decrease the amounts of the target protein. Cell transfected with 10 nM of each siRNA for 72 h were lysed and the target proteins identified using Western blots probed with target-specific antibodies. The effective siRNAs described in Table 3 reduced the levels of the proteins by between 28 and 92% of the mock-treated samples. The reduction in the proteins is less than the reduction of the target mRNA, likely due to the proteins have prolonged half-life and that more time is needed for their degradation. […] We reason that this is due to RPLP1 and RPLP2 functioning as heterodimers such that a decrease of one protein increases the vulnerability of the other protein to degradation. Similar concomitant decrease of the proteins was reported by Campos et al. (17). Finally, the levels of two cellular proteins that are not targeted by the siRNAs, P54nrb and GAPDH, were unaffected.

The subject of another data set is HCoV-OC43. Put plainly: OC43 virion RNA, Branched DNA assay, infected HCT8 cells. As to conditions: for OC43 vRNA reduction siRNA and siGRP78: 10 nM siRNA along with 10 nM of siRNA targeting GRP78, HCT8 cells; for OC43 vRNA reduction: 10 nM siRNA, HCT8 cells. The class given is cell-based, human coronavirus OC43. Here is the method: The siRNAs were transfected in the HCT8 cells at a final concentration of 10 nM. A positive control for the inhibition of Coronavirus infection, Remdesivir (Rem), was used at 0.9 μM. The virion RNAs (vRNAs) were quantified using a Branched DNA assay specific for OC43 RNA.
The two siRNAs are those referred to by compound number (see Table 2) in the horizontal bar, along with siRNA targeting GRP78, siGRP78. A positive control for the inhibition of Coronavirus infection, Remdesivir (Rem), was used at 0.9 μM. The vRNAs were quantified using a Branched DNA assay specific for OC43 RNA.
The siRNAs listed in Table 2 were transfected into human colon epithelial HCT8 cells and the amount of OC43 virion produced was quantified. In these assays, the OC43 vRNA was quantified using a Branched DNA assay (QuantiGene gene expression assay: ThermoFisher). As a positive inhibitory control, the infected cells were treated with Remdesivir. […] Examples of the inhibition of OC43 vRNA are illustrated in FIG. 5A.
A combination of siRNAs targeting the host factor should more robustly reduce OC43 virion production. To illustrate this, HCT8 cells were transfected with 10 nM of siRNAs from Table 2 along with 10 nM of siRNA targeting GRP78. The virion RNAs produced were quantified using the Branched DNA assay. […] A combination of siRNAs targeting host factors GRP78, SRSF1, RPLP1 and RPLP2 can lead to significant reduction in the production of human Coronavirus virion RNA from infected cells.

The next data set concerns HepG2.2.15 cells. Put plainly: HepG2.2.15 cell viability, CellTiter-Glo. As to conditions: for CC50: read-out: CC50, HepG2.2.15 cell viability, highest concentration tested 80 nM. How it is done:
as §3
The effects on cell viability were quantified using the CellTiter-Glo reagent. All data were normalized to the amount of protein produced by mock-treated cells.
as §2

Bounds are passed on as bounds.

For “24 (GCAAAGAAAGAAGAAUCCGTTCGGAUUCUUCUUUCUUUGCTT; siRNA; Self-complementary hairpin strand, chemistry not given here, further chemistry not given here; listed as Homo sapiens) [compound 24]”, in the data set with RPLP1 mRNA, the “Target RNA reduction in HepG2.2.15 cells” value is listed as 80 ± 1%. Moreover, the “HBeAg reduction HepG2.2.15 cells” value with HBeAg came to 66 ± 2%. In addition, the “HBeAg level, siRNA library” value in the data set with HBeAg (HepG2.2.15 cells, Example A6, FIG. 5A) is “inhibited the levels of HBsAg and HBeAg”. In the data set on HBsAg (FIG. 5A), the “HBsAg level, dose response” value is “dose-dependent reduction of HBV S-antigen (HBsAg)”. Further, the EC50 in the data set with HBsAg was found to be 0.359 nM. Besides, the “Target protein reduction in HepG2.2.15 cells” value (“Target protein reduction” below) in the data set with RPLP1 protein was determined as 48 ± 3%. Also, in the data set on HCoV-OC43, the “OC43 vRNA reduction siRNA and siGRP78” value is 94 ± 4%; the “OC43 vRNA reduction” value amounted to 89 ± 8%. The CC50 with HepG2.2.15 cells was above 80 nM. Further, the “cytotoxicity / cell viability, siRNA library” value in the data set on HepG2.2.15 cells (up to the highest concentration tested, 80 nM) is “without affecting cell viability”.
As for “25 (GAUCAAUGCCCUCAUUAAAGCTTUUUAAUGAGGGCAUUGAUCUUTT; siRNA; Self-complementary hairpin strand, chemistry not given here, further chemistry not given here; listed as Homo sapiens) [compound 25]”, in the data set with RPLP1 mRNA, the “Target RNA reduction in HepG2.2.15 cells” value came out at 74 ± 6%. Also, the “HBeAg reduction HepG2.2.15 cells” value in the data set with HBeAg stood at 60 ± 3%. The EC50 in the data set with HBsAg is 1.83 nM. Moreover, the “Target protein reduction” value in the data set on RPLP1 protein was determined as 53 ± 12%. Also, in the data set with HCoV-OC43, the “OC43 vRNA reduction siRNA and siGRP78” value was found to be 88 ± 3%; the “OC43 vRNA reduction” value was 80 ± 7%. Further, the half-maximal cytotoxic concentration (CC50) with HepG2.2.15 cells is above 80 nM.
With “26 (GAAGCAAAGAAAGAAGAAUCCTTAUUCUUCUUUCUUUGCUUCCATT; siRNA; Self-complementary hairpin strand, chemistry not given here, further chemistry not given here; listed as Homo sapiens) [compound 26]”, the “Target RNA reduction in HepG2.2.15 cells” value with RPLP1 mRNA worked out at 86 ± 1%. The “HBeAg reduction HepG2.2.15 cells” value in the data set with HBeAg came to 64 ± 3%. Also, the EC50 with HBsAg turned out to be 0.376 nM. For the same substance, the “Target protein reduction” value in the data set with RPLP1 protein amounted to 72 ± 17%. In the data set on HCoV-OC43, the “OC43 vRNA reduction siRNA and siGRP78” value was determined as 95 ± 1%; the “OC43 vRNA reduction” value is recorded as 91 ± 3%. The CC50 in the data set on HepG2.2.15 cells was above 80 nM.
For the substance “27 (GGUCUUUUUGACUAAACCUCUTTAGGUUUAGUCAAAAAGACCAATT; siRNA; Self-complementary hairpin strand, chemistry not given here, further chemistry not given here; listed as Homo sapiens) [compound 27]”, in the data set with RPLP1 mRNA, the “Target RNA reduction in HepG2.2.15 cells” value is 72 ± 7%. The “HBeAg reduction HepG2.2.15 cells” value in the data set on HBeAg is 55 ± 5%. For the same substance, in the data set on HBsAg, the EC50 is 0.11 nM. In addition, the “Target protein reduction” value in the data set with RPLP1 protein is reported as 51 ± 9%. Moreover, in the data set with HCoV-OC43, the “OC43 vRNA reduction siRNA and siGRP78” value is recorded as 95 ± 2%; the “OC43 vRNA reduction” value is recorded as 94 ± 4%. The 50% cytotoxic concentration (CC50) in the data set on HepG2.2.15 cells is above 80 nM.
As for “28 (UAUGGCCUCUGUCUCCGAGCUUUAGCUCGGAGACAGAGGCCAUAUU; siRNA; Self-complementary hairpin strand, chemistry not given here, further chemistry not given here; listed as Homo sapiens) [compound 28]”, the “Target RNA reduction in HepG2.2.15 cells” value in the data set on RPLP1 mRNA is recorded as 80 ± 2%. Besides, in the data set with HBeAg, the “HBeAg reduction HepG2.2.15 cells” value came to 30 ± 4%. For the same substance, in the data set on HBsAg, the EC50 was found to be 0.19 nM. Besides, the “Target protein reduction” value in the data set on RPLP1 protein was found to be 58 ± 7%. Besides, in the data set on HCoV-OC43, the “OC43 vRNA reduction siRNA and siGRP78” value was found to be 71 ± 6%; the “OC43 vRNA reduction” value was 48 ± 12%. The cytotoxic concentration (CC50) in the data set with HepG2.2.15 cells was above 80 nM.
For the substance “29 (UGUCUCCGAGCUCGCCUGCAUUUAUGCAGGCGAGCUCGGAGACAUU; siRNA; Self-complementary hairpin strand, chemistry not given here, further chemistry not given here; listed as Homo sapiens) [compound 29]”, in the data set on RPLP1 mRNA, the “Target RNA reduction in HepG2.2.15 cells” value was found to be 75 ± 1%. Besides, the “HBeAg reduction HepG2.2.15 cells” value in the data set with HBeAg is listed as 58 ± 3%. In addition, the concentration giving a half-maximal response (EC50) in the data set on HBsAg is 0.386 nM. For the same substance, the “Target protein reduction” value with RPLP1 protein was determined as 52 ± 4%. In addition, in the data set with HCoV-OC43, the “OC43 vRNA reduction siRNA and siGRP78” value worked out at 92 ± 3%; the “OC43 vRNA reduction” value was determined as 87 ± 10%. Moreover, the CC50 with HepG2.2.15 cells was above 80 nM.
On to “30 (AGGAUAAGAUCAAUGCCCUUCUUGAAGGGCAUUGAUCUUAUCCUUU; siRNA; Self-complementary hairpin strand, chemistry not given here, further chemistry not given here; listed as Homo sapiens) [compound 30]”, for which the “Target RNA reduction in HepG2.2.15 cells” value with RPLP1 mRNA is 78 ± 3%. Besides, the “HBeAg reduction HepG2.2.15 cells” value with HBeAg is on record as 58 ± 4%. In the data set on HBsAg, the EC50 was 0.69 nM. In addition, the “Target protein reduction” value in the data set with RPLP1 protein came out at 45 ± 8%. In the data set with HCoV-OC43, the “OC43 vRNA reduction siRNA and siGRP78” value is 84 ± 6%; the “OC43 vRNA reduction” value is 90 ± 6%. Besides, the CC50 in the data set on HepG2.2.15 cells is above 80 nM.
On to “31 (UUUGGCCUGGCUUGUUUGCAAUUUUGCAAACAAGCCAGGCCAAAUU; siRNA; Self-complementary hairpin strand, chemistry not given here, further chemistry not given here; listed as Homo sapiens) [compound 31]”, for which the “Target RNA reduction in HepG2.2.15 cells” value with RPLP1 mRNA is recorded as 84 ± 4%. Also, in the data set on HBsAg, the EC50 came out at 0.012 nM. Besides, in the data set on RPLP1 protein, the “Target protein reduction” value is given as 37 ± 7%. In the data set with HCoV-OC43, the “OC43 vRNA reduction siRNA and siGRP78” value is 82 ± 6%; the “OC43 vRNA reduction” value was 82 ± 4%. Also, in the data set with HepG2.2.15 cells, the cytotoxic concentration (CC50) is above 80 nM.
For the substance “33 (UUGGUCUUUUUGACUAAACCUUUAGGUUUAGUCAAAAAGACCAAUU; siRNA; Self-complementary hairpin strand, chemistry not given here, further chemistry not given here; listed as Homo sapiens) [compound 33]”, the “Target RNA reduction in HepG2.2.15 cells” value with RPLP1 mRNA came to 83 ± 6%. For the same substance, in the data set on HBsAg, the EC50 turned out to be 1.54 nM. Besides, in the data set with RPLP1 protein, the “Target protein reduction” value is 28 ± 4%. The CC50 in the data set with HepG2.2.15 cells was above 80 nM.
